For 5 molecules, pest or weed control results are on record in patent US4243408A, “Herbicidal N-triazolylmethyl-substituted alpha-haloacetanilide” (Chevron Research Company, priority 1978, dated 1981).

Holding throughout (type): in vivo
The subject of assay [1] is Watergrass (Echinochloa). The assay can be described thus: Pre-Emergent Test, herbicidal effectiveness. The conditions noted are these: pre-emergence, 504 h, 33 micrograms per cm^2, 3 weeks, 0-to-100 scale, read-out: Herbicidal Effectiveness, % Control Pre, W. In outline: (§1)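 Seeds are sown in potted soil; the compound, dissolved in acetone with a nonionic surfactant and diluted into surfactant-containing water, is sprayed evenly over the soil at 33 micrograms/cm^2. After watering, pots stand in a greenhouse before scoring herbicidal effect from 0 (no phytotoxicity) to 100 (complete kill).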

The test system of assay [2] is Crabgrass (Digitaria sanguinalis). The assay can be described thus: Pre-Emergent Test, herbicidal effectiveness. The note with it: pre-emergence, 504 h, 33 micrograms per cm^2, 3 weeks, 0-to-100 scale, read-out: Herbicidal Effectiveness, % Control Pre, C. Summed up: as §1
Assay [3] concerns Lambsquarter (Chenopodium album). Description: Pre-Emergent Test, herbicidal effectiveness. The note with it: pre-emergence, 504 h, 33 micrograms per cm^2, 3 weeks, 0-to-100 scale, read-out: Herbicidal Effectiveness, % Control Pre, L. Summed up: as §1
For assay [4], the system named is Pigweed (Amaranthus retroflexus). Description: Pre-Emergent Test, herbicidal effectiveness. The conditions noted are these: pre-emergence, 504 h, 33 micrograms per cm^2, 3 weeks, 0-to-100 scale, read-out: Herbicidal Effectiveness, % Control Pre, P. Summed up: as §1
The subject of assay [5] is Mustard (Brassica arvensis). The assay can be described thus: Pre-Emergent Test, herbicidal effectiveness. The note with it: pre-emergence, 504 h, 33 micrograms per cm^2, 3 weeks, 0-to-100 scale. Summed up:
as §1

In assay [6] the test system is Wild Oats (Avena fatua). The assay can be described thus: Pre-Emergent Test, herbicidal effectiveness. The conditions noted are these: pre-emergence, 504 h, 33 micrograms per cm^2, 3 weeks, 0-to-100 scale, read-out: Herbicidal Effectiveness, % Control Pre, O. Summed up:
as §1

Assay [7] deals with Watergrass (Echinochloa). Description: Post-Emergent Test, herbicidal effectiveness. The note with it: post-emergence, 504 h, 33 micrograms per cm^2, 3 weeks, 0-to-100 scale, read-out: Herbicidal Effectiveness, % Control Post, W. In outline:
(§2)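 Steps: formulate compound with surfactant in acetone and water to 5000 ppm; spray 24-day-old plants at 33 micrograms/cm^2; dry, then grow on in greenhouse with watering at the base; score at 3 weeks, 0–100.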

The test system of assay [8] is Crabgrass (Digitaria sanguinalis). Description: Post-Emergent Test, herbicidal effectiveness. The conditions noted are these: post-emergence, 504 h, 33 micrograms per cm^2, 3 weeks, 0-to-100 scale, read-out: Herbicidal Effectiveness, % Control Post, C. Summed up:
as §2

In assay [9] the test system is Lambsquarter (Chenopodium album). The assay can be described thus: Post-Emergent Test, herbicidal effectiveness. The note with it: post-emergence, 504 h, 33 micrograms per cm^2, 3 weeks, 0-to-100 scale, read-out: Herbicidal Effectiveness, % Control Post, L. In outline:
as §2

Assay [10] has as its system Pigweed (Amaranthus retroflexus). Description: Post-Emergent Test, herbicidal effectiveness. The note with it: post-emergence, 504 h, 33 micrograms per cm^2, 3 weeks, 0-to-100 scale, read-out: Herbicidal Effectiveness, % Control Post, P. In outline: as §2
Assay [11] deals with Mustard (Brassica arvensis). The assay can be described thus: Post-Emergent Test, herbicidal effectiveness. The conditions noted are these: post-emergence, 504 h, 33 micrograms per cm^2, 3 weeks, 0-to-100 scale. Summed up: as §2
Assay [12] concerns Wild Oats (Avena fatua). Description: Post-Emergent Test, herbicidal effectiveness. The note with it: post-emergence, 504 h, 33 micrograms per cm^2, 3 weeks, 0-to-100 scale, read-out: Herbicidal Effectiveness, % Control Post, O. In outline:
as §2

Take `Cc1nnc(CN(C(=O)CCl)c2c(C)cccc2Cl)[nH]1` [Compound 22B]: the pest or weed control at 33 µg/cm2 was determined as 100% in [1]; 100% in [2]; 85% in [3]; 93% in [4]; 80% in assay [5]; 95% in assay [6]. Further, the pest or weed control at 5000 µg/mL, 33 µg/cm2 in [7] was found to be 60%; in assay [8], 0%; in assay [9] it was 20%; in assay [10] it was 75%; in [11], 25%; in assay [12], 0%.

Take `Cc1cccc(C)c1NCc1nnc[nH]1` [Compound 9A]: the pest or weed control at 33 µg/cm2 in [1], in assay [2], in assay [3], in [4], in assay [5] and in [6] was 0% throughout. The pest or weed control at 5000 µg/mL, 33 µg/cm2 in assay [7], in assay [8], in [9], in assay [10], in assay [11] and in [12] was 0% each time.

Consider `Cc1cccc(C)c1NCc1nnc(S)[nH]1` [Compound 18A], for which the pest or weed control at 33 µg/cm2 in [1], in [2], in [3], in assay [4], in assay [5] and in assay [6] was 0% in each case. The pest or weed control at 5000 µg/mL, 33 µg/cm2 in assay [7], in [8], in assay [9], in assay [10], in [11] and in assay [12] was 0% in each case.

For the molecule `CCc1nnc(CNc2c(CC)cccc2CC)[nH]1` [Compound 8A], the pest or weed control at 33 µg/cm2 in assay [1], in assay [2], in assay [3], in [4], in assay [5] and in [6] was 0% each time. The pest or weed control at 5000 µg/mL, 33 µg/cm2 in [7], in [8], in [9], in [10], in assay [11] and in assay [12] was 0% throughout.

Consider `Cc1nnc(CN(C(=O)CCl)c2c(C)cccc2C)o1` [Compound 1B, N-(5-methyl-1,3,4-oxadiazol-2-ylmethyl)-2,6-dimethyl-alpha-chloroacetanilide], for which the pest or weed control at 33 µg/cm2 in assay [1] was 100%; in [2] it was 100%; in [3], 50%; in assay [4], 87%; in [5] it was 45%; in assay [6], 90%. Besides, the pest or weed control at 5000 µg/mL, 33 µg/cm2 in assay [7], in [8], in assay [9], in [10], in assay [11] and in assay [12] was 0% throughout.
